From US20230062119A1, “USE OF BIOMARKERS IN IDENTIFYING PATIENTS THAT WILL BE RESPONSIVE TO TREATMENT WITH A PRMT5 INHIBITOR” (Merck Sharp & Dohme LLC, priority 2019, published 2023)
Where a name gives a salt, the structure may show the parent alone. Read-outs that look alike come from different tables or passages of the source.

Columns and labels:
[1] = target: T1, Full-length (FL)-PRMT5-MEP50 enzyme complex (Homo sapiens, UniProt O14744); experiment: PRMT5-MEP50 Enzyme Methylation Assay; type: biochemical; conditions: 1.0 nM PRMT5-MEP50, 75 nM biotinylated peptide, 15 μM SAM
T1 construct: Full-length (FL)-PRMT5-MEP50 enzyme complex (recombinant proteins from baculovirus-transfected Sf21 cells: FL-PRMT5; MW=73837 kDa and FL-MEP50; MW=38614); made in house; host or cells: baculovirus-transfected Sf21 insect cells
Summary of the method: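 Compound was pre-incubated 60 min at 37°C with 1.0 nM enzyme and 15 μM SAM (final) in 50 mM Bicine pH 8.0, then 75 nM biotinylated H4R3(Me1) peptide was added and reacted 150 min; twenty-point 1:2 titration from 100000 nM, 1% DMSO. Formic acid quench; SAMDI mass spectrometry measured Me1-to-Me2 conversion, EC50 by 4- or 7-parameter regression.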

[2] = test system: symmetric dimethylation of arginine (SDMA) of PRMT5 substrates in MCF-7 cells; experiment: PRMT5 Cell Target Engagement (TE) Assay; type: cell-based; conditions: Homo sapiens, MCF7, 72 h, treated for 3 days, nuclear SDMA by high content imaging, top concentration 10000 nM
Excerpt: The PRMT5 TE assay is a biomarker assay for identifying compounds that inhibit symmetric dimethylation of arginine (SDMA) of PRMT5 substrates. The following substrates have been reported for PRMT5: Histone H2A and H4 R3, Histone H3 R2, Histone H3 R8, spliceosome Sm proteins, ribosomal protein RPS10, p53, FEN1, nucleoplasmin, nucleolin, EGFR and EBNA. The assay will focus on detecting symmetrically dimethylated nuclear proteins using high content imaging technology. Detection of the expression of symmetrically dimethylated nuclear proteins is through a mixture of primary rabbit monoclonal antibodies to SDMA (CST 13222), which in turn recognized by an Alexafluor 488 dye-conjugated anti-rabbit IgG secondary antibody. The IN Cell Analyzer 2200 or Opera-Phenix measures nuclear Alexafluor 488 fluorescent dye intensity that is directly related to the level of expression of symmetrically dimethylated nuclear proteins at the single cell level. Nuclear AF488 dye intensities are compared to the mean value for DMSO treated cells (MIN) to report percent of inhibition for each compound-treated well.
In this assay, the cell potency (EC50) of each compound was determined from a ten point (1:3 serial dilution; top compound concentration of 10000 nM) titration curve using the following outlined procedure. Each well of a BD falcon collagen coated black/clear bottom 384-well plate was seeded with 4000 MCF-7 cells in 30 μl media and allowed to attach for 5 hours. Media is ATCC-formulated Eagle's Minimum Essential Medium, Catalog No. 30-2003. The following components were added to the base medium: 0.01 mg/mL human recombinant insulin; fetal bovine serum to a final concentration of 10%. Additional 30 µl of media containing 2× compounds were added to each well. Cells were treated for 3 days in 37° C. CO2 incubator. On day 3, cells were fixed with Cytofix, permeabilized with 0.4% Triton-X-100/Cytofix, and washed with D-PBS without Ca/Mg. Cells were blocked with Licor Odessey blocking reagent for 1 hour at room temperature, followed by incubation with anti-SDMA (1:1000) antibody at 4° C. overnight. 1° antibody was removed, followed by three washings with DPBS without Ca/Mg and 0.05% Tween20. Hoechst (5 μg/mL), Cell Mask deep stain (1:2000) and Alexa488-conjugated goat anti-rabbit IgG (2 μg/mL) was added for 1 hour at room temperature. A final washing step (three washes) was performed before sealing plate for imaging on In Cell Analyzer 2200 or Opera-Phenix. Images from analyzer were uploaded to Columbus for image analysis. IC50 values were determined by 4 parameters robust fit of percent fluorescence units vs. (Log 10) compound concentrations.

[3] = one EC50: 4 parameters single site sigmoidal model, EC50 1: first value of 7 parameters biphasic model, read-out: Enzyme Methylation Assay (EC50 or EC50 1)
[4] = second EC50 of 7 parameters biphasic model, read-out: Enzyme Methylation Assay (EC50 2)

T1 sequence (O14744 whole entry): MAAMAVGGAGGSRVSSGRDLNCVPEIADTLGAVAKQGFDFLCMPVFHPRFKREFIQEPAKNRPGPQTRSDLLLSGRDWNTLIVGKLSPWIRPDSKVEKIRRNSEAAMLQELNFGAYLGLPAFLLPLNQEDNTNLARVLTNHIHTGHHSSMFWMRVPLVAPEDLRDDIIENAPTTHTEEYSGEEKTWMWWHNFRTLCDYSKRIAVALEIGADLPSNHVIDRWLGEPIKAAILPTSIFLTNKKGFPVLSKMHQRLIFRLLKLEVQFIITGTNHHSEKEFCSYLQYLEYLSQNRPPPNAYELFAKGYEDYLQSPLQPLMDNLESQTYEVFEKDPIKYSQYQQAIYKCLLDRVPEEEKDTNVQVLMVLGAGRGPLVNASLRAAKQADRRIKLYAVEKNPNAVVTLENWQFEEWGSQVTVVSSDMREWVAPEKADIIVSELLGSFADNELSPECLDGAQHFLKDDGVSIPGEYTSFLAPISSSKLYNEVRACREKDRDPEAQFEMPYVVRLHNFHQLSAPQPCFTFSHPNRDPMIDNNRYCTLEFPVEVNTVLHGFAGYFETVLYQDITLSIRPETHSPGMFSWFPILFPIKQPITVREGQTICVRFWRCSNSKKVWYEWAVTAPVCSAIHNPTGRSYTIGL
T1 sequence (Q9BQA1 whole entry partner): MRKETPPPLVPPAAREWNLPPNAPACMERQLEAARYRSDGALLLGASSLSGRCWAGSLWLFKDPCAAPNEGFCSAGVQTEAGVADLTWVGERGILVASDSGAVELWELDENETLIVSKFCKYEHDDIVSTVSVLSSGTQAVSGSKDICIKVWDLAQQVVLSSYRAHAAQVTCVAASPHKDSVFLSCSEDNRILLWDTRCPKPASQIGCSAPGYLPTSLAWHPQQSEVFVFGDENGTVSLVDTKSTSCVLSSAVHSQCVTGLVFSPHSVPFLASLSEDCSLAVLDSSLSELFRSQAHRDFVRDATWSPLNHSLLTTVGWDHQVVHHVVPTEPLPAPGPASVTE

Structure (SMILES) | EC50 [1, 3] [nM] | EC50 [2] [nM] | EC50 [1, 4] [nM]
Nc1nc2cc(CC[C@]3(CF)C[C@@H](n4ccc5c(N)ncnc54)[C@H](O)[C@@H]3O)ccc2cc1Br [Example 102, (1S,2R,5R)-3-(2-(2-amino-3-bromoquinolin-7-yl)ethyl)-5-(4-amino-7H-pyrrolo[2,3-d]pyrimidin-7-yl)-3-(fluoromethyl)cyclopentane-1,2-diol] | 0.3 | 2 | –
Nc1ncc2ccn([C@@H]3O[C@@H]4[C@@H](Oc5ccc6cc(Br)c(N)nc6c5)CC[C@]4(O)[C@H]3O)c2n1 [compound 46, (2R,3R,3aS,6S,6aR)-6-((2-amino-3-bromoquinolin-7-yl)oxy)-2-(2-amino-7H-pyrrolo[2,3-d]pyrimidin-7-yl)hexahydro-3aH-cyclopenta[b]furan-3,3a-diol dihydrochloride] | 0.5 | 16.8 | –
Nc1nc2cc(C[C@@H]3CC[C@@]4(O)[C@@H]3O[C@@H](n3cc(C5CC5)c5c(N)ncnc53)[C@@H]4O)ccc2cc1F [Example 50, (2R,3R,3aS,6S,6aR)-2-(4-amino-5-cyclopropyl-7H-pyrrolo[2,3-d]pyrimidin-7-yl)-6-[(2-amino-3-fluoroquinolin-7-yl)methyl]hexahydro-3aH-cyclopenta[b]furan-3,3a-diol] | 0.3 | 0.7 | –
Cc1cn([C@@H]2O[C@@H]3[C@@H](Oc4ccc5cc(Cl)c(N)nc5c4)CC[C@]3(O)[C@H]2O)c2ncnc(N)c12 [Example 64, (2R,3R,3aS,6S,6aR)-6-((2-amino-3-chloroquinolin-7-yl)oxy)-2-(4-amino-5-methyl-7H-pyrrolo[2,3-d]pyrimidin-7-yl)hexahydro-3aH-cyclopenta[b]furan-3,3a-diol 2,2,2-trifluoroacetate] | 0.3 | 16.2 | –
Nc1nc2cc(O[C@H]3CC[C@@]4(O)[C@@H]3O[C@@H](n3ccc5c(C(F)F)ncnc53)[C@@H]4O)ccc2cc1Br [Example 79, (2R,3R,3aS,6S,6aR)-6-((2-amino-3-bromoquinolin-7-yl)oxy)-2-(4-(difluoromethyl)-7H-pyrrolo[2,3-d]pyrimidin-7-yl)hexahydro-3aH-cyclopenta[b]furan-3,3a-diol] | 2.9 | 52.5 | –
CCc1cn([C@@H]2O[C@@H]3[C@@H](Oc4ccc5cc(Br)c(N)nc5c4)CC[C@]3(O)[C@H]2O)c2ncnc(N)c12 [Example 69, (2R,3R,3aS,6S,6aR)-6-((2-amino-3-bromoquinolin-7-yl)oxy)-2-(4-amino-5-ethyl-7H-pyrrolo[2,3-d]pyrimidin-7-yl)hexahydro-3aH-cyclopenta[b]furan-3,3a-diol] | 1.1 | 103 | –
Cc1cn([C@@H]2O[C@@H]3[C@@H](Oc4ccc5cc(F)c(N)nc5c4)CC[C@]3(O)[C@H]2O)c2ncnc(N)c12 [Example 65, (2R,3R,3aS,6S,6aR)-6-((2-amino-3-fluoroquinolin-7-yl)oxy)-2-(4-amino-5-methyl-7H-pyrrolo[2,3-d]pyrimidin-7-yl)hexahydro-3aH-cyclopenta[b]furan-3,3a-diol 2,2,2-trifluoroacetate] | 0.2 | 179 | 200
CCc1ncnc2c1ccn2[C@@H]1O[C@@H]2[C@@H](Oc3ccc4cc(Br)c(N)nc4c3)CC[C@]2(O)[C@H]1O [Example 82, 2,2,2-trifluoroacetate] | 0.7 | 87.2 | 75.9
Nc1nc2cc(C[C@@H]3CC[C@@]4(O)[C@@H]3O[C@@H](n3ccc5c(N)ncnc53)[C@@H]4O)ccc2cc1C(F)(F)F [compound 76, (2R,3R,3aS,6S,6aR)-6-((2-amino-3-(trifluoromethyl)quinolin-7-yl)methyl)-2-(4-amino-7H-pyrrolo[2,3-d]pyrimidin-7-yl)hexahydro-3aH-cyclopenta[b]furan-3,3a-diol] | 0.9 | – | –
